These are literature values, as cited in patent US9034830B2, “Methods and compositions for sustained delivery of drugs” (INTRATUS, INC., priority 2009, dated 2015).

The data set has as its system patients.

Turning to `Brc1c(NC2=NCCN2)ccc2nccnc12` [Brimonidine], the “more patients who had to discontinue due to lack of clinical effect” value (0.2% eye drop, FDA clinical data) is on record as 30%. Where the note is “eye drop, dosed at least two times a day”, the “drop in intraocular pressure” value is reported as roughly 24%. In addition, the “patients with side-effects (itching, redness, intolerance) necessitating stoppage of the drug” value (eye drop, per FDA data) is given as “up to 20%”.
